These results are taken from patent publication US20230022841A1, “ISARIDIN CYCLODEPSIPEPTIDE DERIVATIVES, AND PREPARATION AND APPLICATION THEREOF” (Sun Yat-sen University, priority 2022, published 2023).

Assay [1] has as its system ADP-induced platelet aggregation. Description: ADP-induced platelet aggregation in vitro (platelet-rich plasma, turbidimetric method). In kind it is cell-based, Kunming mice. The settings on record: 5 min; mouse platelet-rich plasma, ADP inducer, 37° C., maximum aggregation rate within 5 min; values stated as approximate; read-out: IC50, inhibition of ADP-induced platelet aggregation. The method, then: Compounds I-1 to I-9 and I-13 to I-15 prepared in Example 1 were tested for their inhibitory effects on the ADP-induced platelet aggregation in vitro to evaluate the anti-thrombotic activities, and the test process was specifically described as follows.
Kunming mice were anesthetized with pentobarbital sodium, and blood was collected from the celiac artery, where the syringe was added with 3.2% sodium citrate for anti-coagulation in advance (a volume ratio of whole blood to the anticoagulant was 9:1). The mixture was gently mixed and centrifuged at 1000 r/min for 10 min to collect the supernatant as the platelet-rich plasma (PRP). The remaining part was centrifuged at 3000 r/min for 10 min to obtain platelet-poor plasma (PPP). […]
For the blank control group, 1% DMSO was mixed with 295 μL of PRP; for the drug group, 5 μL of the isaridin derivatives with different concentrations (a final concentration of 0-100 μM) was mixed with 295 μL of PRP; and regarding the positive control group, aspirin was mixed with plasma to a final concentration of 120 μM. […] Three parallel samples were tested for each group, and the platelet aggregation rate was measured at 37° C. by turbidimetric method, where the maximum aggregation rate within 5 min was recorded.
The platelet aggregation rate was expressed as the maximum platelet aggregation rate, and the results were expressed as the inhibition rate. […]

Assay [2] concerns LPS-induced RAW264.7 cells. The assay is described as follows: NO release from LPS-induced macrophage RAW264.7 cells (Griess). It counts as cell-based. As to conditions: Mus musculus, LPS 1 μg/mL, 24 h, Griess reagent, read-out: half maximal inhibitory concentration (IC50), NO release inhibition. The method, then:
The effect of the compounds I-1 to I-9 and I-13 to I-15 prepared in Example 1 on the NO release from LPS-induced macrophage RAW264.7 cells was investigated to evaluate the anti-inflammatory activity, which was specifically described as follows.
Lipopolysaccharide (LPS); indomethacin (Indomethacin, Indo, positive control); mouse mononuclear macrophages (RAW264.7); dimethyl sulfoxide (DMSO); Methylthiazolyldiphenyl-tetrazolium bromide (MTT, 5 mg/mL); and Griess reagent nitrite measurement kit (Beyotime Biotechnology Co., Ltd).
The compounds were respectively dissolved in DMSO to obtain a series of 10 mM stock solutions, which were diluted with Dulbecco's modified eagle medium (DMEM) to a required concentration (DMSO<2%) for use.
RAW264.7 cells (1×10^5 cells/mL) were inoculated into a 96-well plate at 100 μL per well and incubated at 37° C. and 5% CO2 for 12 h. Different concentrations of samples containing LPS (with a final concentration of 1 μg/mL) were respectively loaded on the plate. […] After that, the absorbance of each well of the 96-well plate at 540 nm was measured with a microplate reader and then plugged into the standard curve to calculate the NO release level. […]
Background: The Griess reaction detects nitrite, a stable product of nitric oxide.

With `CC(=O)Oc1ccccc1C(=O)O` [aspirin], in assay [1], the IC50 was 120 µM.
In the case of `COc1ccc2c(c1)c(CC(=O)O)c(C)n2C(=O)c1ccc(Cl)cc1` [indomethacin], the IC50 in assay [2] amounted to 38 µM.
